28 molecules from patent US20110039847A1, “AMIDE DERIVATIVES AS SIRTUIN MODULATORS” (Sirtris Pharmaceuticals, Inc, priority 2007, published 2011) can be followed below.

The target in this experiment is T1, SIRT1 (Homo sapiens, UniProt Q96EB6).
T1 sequence (Q96EB6 1-747): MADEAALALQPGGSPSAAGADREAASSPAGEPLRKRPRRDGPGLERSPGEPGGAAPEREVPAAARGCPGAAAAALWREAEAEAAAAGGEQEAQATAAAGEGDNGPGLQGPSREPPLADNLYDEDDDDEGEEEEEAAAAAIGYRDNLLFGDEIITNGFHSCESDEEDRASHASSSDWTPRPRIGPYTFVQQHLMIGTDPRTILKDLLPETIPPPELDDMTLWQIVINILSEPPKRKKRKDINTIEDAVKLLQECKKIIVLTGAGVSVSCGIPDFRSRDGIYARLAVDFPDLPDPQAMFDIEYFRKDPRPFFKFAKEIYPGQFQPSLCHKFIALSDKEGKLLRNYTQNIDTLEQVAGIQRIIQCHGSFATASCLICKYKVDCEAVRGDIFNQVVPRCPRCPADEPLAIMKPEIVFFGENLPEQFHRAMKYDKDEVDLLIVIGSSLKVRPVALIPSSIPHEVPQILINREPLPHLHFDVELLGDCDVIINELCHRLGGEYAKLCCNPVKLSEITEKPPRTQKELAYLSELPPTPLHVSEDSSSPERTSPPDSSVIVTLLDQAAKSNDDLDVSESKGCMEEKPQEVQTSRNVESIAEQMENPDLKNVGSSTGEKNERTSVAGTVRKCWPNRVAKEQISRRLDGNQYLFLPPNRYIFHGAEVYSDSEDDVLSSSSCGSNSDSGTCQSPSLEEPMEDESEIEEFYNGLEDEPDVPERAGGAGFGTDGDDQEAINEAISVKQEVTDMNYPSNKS
In words: Mass spectrometry based SIRT1 deacetylation (activation) assay. Format: biochemical. Conditions: 0.5 μM peptide substrate, 120 μM βNAD+, 10 nM SIRT1, 25 min at 25° C.; for Emax: 25 min, read-out: % Fold Act. (percent maximum fold activation). The source says:
A mass spectrometry based assay was used to identify modulators of SIRT1 activity. The mass spectrometry based assay utilizes a peptide having 20 amino acid residues as follows: Ac-EE-K(biotin)-GQSTSSHSK(Ac)NleSTEG-K(5TMR)-EE-NH2 (SEQ ID NO: 1) wherein K(Ac) is an acetylated lysine residue and Nle is a norleucine. The peptide is labeled with the fluorophore 5TMR (excitation 540 nm/emission 580 nm) at the C-terminus. The sequence of the peptide substrate is based on p53 with several modifications. In addition, the methionine residue naturally present in the sequence was replaced with the norleucine because the methionine may be susceptible to oxidation during synthesis and purification.
The mass spectrometry assay is conducted as follows: 0.5 μM peptide substrate and 120 μM βNAD^+ is incubated with 10 nM SIRT1 for 25 minutes at 25° C. in a reaction buffer (50 mM Tris-acetate pH 8, 137 mM NaCl, 2.7 mM KCl, 1 mM MgCl2, 5 mM DTT, 0.05% BSA). Test compounds may be added to the reaction as described above. […] After the 25 minute incubation with SIRT1, 10 μL of 10% formic acid is added to stop the reaction. Reactions are sealed and frozen for later mass spec analysis. Determination of the mass of the substrate peptide allows for precise determination of the degree of acetylation (i.e. starting material) as compared to deacetylated peptide (product).
A control for inhibition of sirtuin activity is conducted by adding 1 μL of 500 mM nicotinamide as a negative control at the start of the reaction (e.g., permits determination of maximum sirtuin inhibition). A control for activation of sirtuin activity is conducted using 10 nM of sirtuin protein, with 1 μL of DMSO in place of compound, to determine the amount of deacetylation of the substrate at a given timepoint within the linear range of the assay. This timepoint is the same as that used for test compounds and, within the linear range, the endpoint represents a change in velocity.
For the above assay, SIRT1 protein was expressed and purified as follows. […] The protein was expressed by induction with 1 mM IPTG as an N-terminal His-tag fusion protein at 18° C. overnight and harvested at 30,000×g. Cells were lysed with lysozyme in lysis buffer (50 mM Tris-HCl, 2 mM Tris[2-carboxyethyl]phosphine (TCEP), 10 μM ZnCl2, 200 mM NaCl) and further treated with sonication for 10 min for complete lysis. The protein was purified over a Ni-NTA column (Amersham) and fractions containing pure protein were pooled, concentrated and run over a sizing column (Sephadex S200 26/60 global). The peak containing soluble protein was collected and run on an Ion-exchange column (MonoQ). Gradient elution (200 mM-500 mM NaCl) yielded pure protein. This protein was concentrated and dialyzed against dialysis buffer (20 mM Tris-HCl, 2 mM TCEP) overnight. The protein was aliquoted and frozen at −80° C. until further use.

Some results are limits rather than exact numbers.

With `CN(C)CCNc1cc(C(=O)Nc2ccccc2-c2nncs2)nc(-c2ccccc2)n1` [Compound 26], the EC1.5 entry is listed as “A (EC1.5≦1 uM)” and the Emax was no less than 300%.
For `CCN(CCN(C)C)c1cc(C(=O)Nc2ccccc2C(=O)N[C@@H]2CCCC[C@@H]2O)nc(-c2ccccc2)n1` [Compound 170, 6-((2-(dimethylamino)ethyl)(ethyl)amino)-N-(2-((1R,2S)-2-hydroxycyclohexylcarbamoyl)phenyl)-2-phenylpyrimidine-4-carboxamide], the EC1.5 result is “A (EC1.5≦1 uM)” and the Emax is no less than 300%.
Regarding `CC(C)(C)c1cnc(-c2ccccc2NC(=O)c2cc(OC[C@@H](O)CO)cc(-c3ccccc3)n2)s1` [Compound 75], the EC1.5 entry is “B (EC1.5>1 and ≦10 uM)”; the Emax is no less than 300%.
For the molecule `CCN(CCN(C)C)c1cc(C(=O)Nc2ccccc2C(=O)NC2CC2)nc(-c2ccccc2)n1` [Compound 168, N-(2-(cyclopropylcarbamoyl)phenyl)-6-((2-(dimethylamino)ethyl)(ethyl)amino)-2-phenylpyrimidine-4-carboxamide], the EC1.5 entry is recorded as “A (EC1.5≦1 uM)” and the Emax was in the range of 150 to 300%.
With `CCN(CCN(C)C)c1cc(C(=O)Nc2ccccc2-c2ncc(C(C)(C)C)o2)nc(-c2ccccc2)n1` [Compound 65], the EC1.5 result is “B (EC1.5>1 and ≦10 uM)”; the Emax lay in the range of 150 to 300%.
On to `CN(C)CCNc1cc(C(=O)Nc2ccccc2-c2ncc(C(C)(C)C)s2)nc(-c2ccccc2)c1` [Compound 29], for which the EC1.5 entry was “B (EC1.5>1 and ≦10 uM)”; the Emax was no less than 300%.
Take `CCc1nnc(-c2ccccc2NC(=O)c2cc(N(C)CCNC)nc(-c3ccccc3)n2)s1` [Compound 52]: the EC1.5 result is recorded as “A (EC1.5≦1 uM)” and the Emax was 150 to 300%.
On to `CCC(=O)c1ccccc1NC(=O)c1cc(NCCN(C)C)nc(-c2ccccc2)n1` [Compound 126], for which the EC1.5 entry was “B (EC1.5>1 and ≦10 uM)”; the Emax fell in the range of 150 to 300%.
As to `CN(C)CCNc1cc(C(=O)Nc2ccccc2-c2nc(-c3ccccc3)cs2)nc(-c2ccccc2)n1` [Compound 14], the EC1.5 result was “B (EC1.5>1 and ≦10 uM)”; the Emax lay within 150 to 300%.
On to `CN(C)CCNc1cc(C(=O)Nc2ccccc2C(=O)Nc2ccccn2)nc(-c2ccccc2)n1` [Compound 158, 6-(2-(dimethylamino)ethylamino)-2-phenyl-N-(2-(pyridin-2-ylcarbamoyl)phenyl)pyrimidine-4-carboxamide], for which the EC1.5 result is on record as “A (EC1.5≦1 uM)” and the Emax lay within 150 to 300%.
Regarding `CCc1ccccc1NC(=O)c1cc(NCCN(C)C)nc(-c2ccccc2)n1` [Compound 1], the EC1.5 result is “C (EC1.5>10 uM)” and the Emax lay in the range of 150 to 300%.
Turning to `O=C1CN(c2cc(C(=O)Nc3ccccc3-c3nnc(C(=O)N4CCOCC4)s3)nc(-c3ccccc3)n2)CCN1` [Compound 89], the EC1.5 result is listed as “A (EC1.5≦1 uM)” and the Emax is no less than 300%.
On to `COCCN(CCOC)c1cc(C(=O)Nc2ccccc2-c2nnc(N3CCOCC3)s2)nc(-c2ccccc2)n1` [Compound 106], for which the EC1.5 entry is listed as “A (EC1.5≦1 uM)” and the Emax fell in the range of 150 to 300%.
In the case of `CN(C)CCNc1cc(C(=O)Nc2ccccc2C(=O)Nc2ccc(Cl)c(Cl)c2)nc(-c2ccccc2)n1` [Compound 153, N-(2-(3,4-dichlorophenylcarbamoyl)phenyl)-6-(2-(dimethylamino)ethylamino)-2-phenylpyrimidine-4-carboxamide], the EC1.5 result is given as “C (EC1.5>10 uM)” and the Emax was in the range of 150 to 300%.
On to `CN(C)CCN(C)c1cc(C(=O)Nc2ccccc2-c2nnc(-c3ccccc3)s2)nc(-c2ccccc2)n1` [Compound 179], for which the EC1.5 entry is listed as “C (EC1.5>10 uM)” and the Emax fell in the range of 150 to 300%.
In the case of `CCN1CCN(c2cc(C(=O)Nc3ccccc3-c3nncs3)nc(-c3ccccc3)n2)CC1=O` [Compound 96], the EC1.5 result is given as “A (EC1.5≦1 uM)” and the Emax was 150 to 300%.
With `CC(=O)c1ccccc1NC(=O)c1cc(NC2CCNCC2)nc(-c2ccccc2)n1` [Compound 140], the EC1.5 result is reported as “A (EC1.5≦1 uM)” and the Emax is no less than 300%.
With `CCCc1nnc(-c2ccccc2NC(=O)c2cc(N(CC)CCN(C)C)nc(-c3ccccc3)n2)s1` [Compound 79], the EC1.5 entry was “A (EC1.5≦1 uM)” and the Emax was no less than 300%.
In the case of `CCN(CC)C(=O)c1ccccc1NC(=O)c1cc(NCCN(C)C)nc(-c2ccccc2)n1` [Compound 124, N-(2-(diethylcarbamoyl)phenyl)-6-(2-(dimethylamino)ethylamino)-2-phenylpyrimidine-4-carboxamide], the EC1.5 result is “B (EC1.5>1 and ≦10 uM)”; the Emax fell in the range of 150 to 300%.
With `CCN(CCN(C)C)c1cc(C(=O)Nc2ccccc2-c2nnc(C3CCOC3)s2)nc(-c2ccccc2)n1` (centres unmarked) [Compound 97, 6-((2-(dimethylamino)ethyl)(ethyl)amino)-2-phenyl-N-(2-(5-(tetrahydrofuran-3-yl)-1,3,4-thiadiazol-2-yl)phenyl)pyrimidine-4-carboxamide], the EC1.5 result is given as “A (EC1.5≦1 uM)” and the Emax was no less than 300%.
Consider `CCN(CCN(C)C)c1cc(C(=O)Nc2ccccc2-c2nnc(C3CCCC3)s2)nc(-c2ccccc2)n1` [Compound 50], for which the EC1.5 entry is “B (EC1.5>1 and ≦10 uM)”; the Emax was in the range of 150 to 300%.
As to `CC(C)(C)c1cnc(-c2ccccc2NC(=O)c2cc(N3CCOCC3)cc(-c3ccccc3)n2)o1` [Compound 70], the EC1.5 entry is on record as “A (EC1.5≦1 uM)” and the Emax is 150 to 300%.
For the molecule `CN(C)CCNc1cc(C(=O)Nc2ccccc2-c2nnc(-c3ccncc3)s2)nc(-c2ccccc2)n1` [Compound 78], the EC1.5 result is “A (EC1.5≦1 uM)” and the Emax was no less than 300%.
`CC(=O)c1ccccc1NC(=O)c1cc(N2CCNCC2)nc(-c2ccccc2)n1` [Compound 138]: the EC1.5 result is “B (EC1.5>1 and ≦10 uM)”; the Emax is no less than 300%.
For the molecule `CN(C)CCNc1cc(C(=O)Nc2ccccc2-c2nnc(-c3ccccn3)s2)nc(-c2ccccc2)n1` [Compound 73], the EC1.5 result is “A (EC1.5≦1 uM)” and the Emax was no less than 300%.
On the same counts, the results for `CCN(CCN(C)C)c1cc(C(=O)Nc2ccccc2-c2nncs2)nc(-c2ccccc2)n1` [Compound 41] are “A (EC1.5≦1 uM)” and no less than 300%.
Take `CCN(CCN(C)C)c1cc(C(=O)Nc2ccccc2-c2ncc(C(C)(C)C)s2)nc(-c2ccccc2)n1` [Compound 63]: the EC1.5 entry was “A (EC1.5≦1 uM)” and the Emax lay in the range of 150 to 300%.
As to `CCCCNC(=O)c1ccccc1NC(=O)c1cc(NCCN(C)C)nc(-c2ccccc2)n1` [Compound 123, N-(2-(butylcarbamoyl)phenyl)-6-(2-(dimethylamino)ethylamino)-2-phenylpyrimidine-4-carboxamide], the EC1.5 result is given as “C (EC1.5>10 uM)” and the Emax was less than 150%.
